A short description of data set [1]: In vivo pharmacokinetics, intravenous. The conditions noted are these: male C57 BL/6 mice, dose 2.00 mg/kg (Compound 1), 2.43 mg/kg (Compound 2); for Vd: male, C57 BL/6, mouse, iv. The procedure:
(§1) The in vivo pharmacokinetic properties of Compound 1 by both intravenous and oral administration were evaluated in male C57 BL/6 mice. The in vivo pharmacokinetic properties of Compound 2 by both intravenous and oral administration were evaluated in male C57 BL/6 mice for comparison.
(§2) Animals were housed in cages with clean bedding. Certified rodent diet was provided. Water was available ad libitum. Environmental controls for the animal room were set to maintain a temperature of 22 to 25° C., humidity of 40-70% RH, and a 12-hour light /12-hour dark cycle. Normal healthy animals certified by the attending veterinarian were selected and acclimatized for minimum three days prior to initiation of study.
(§3) Procedure for Blood Withdrawal: Mice were anesthetized using gaseous anesthesia. Blood samples were collected through a capillary, guided in retro-orbital plexus. At each time point, blood samples from 3 mice of each respective group were collected. The blood samples were collected in pre-labeled tubes. 0.2 to 0.3 mL of blood were collected from each mouse. After collection of the blood samples at each time point, the samples were stored on ice prior to centrifugation. Blood samples were centrifuged within 15 minutes to separate plasma. Centrifugations was done at 1540 rcf (5000 rpm) at 4° C. for 10 minutes. The plasma was separated and transferred to pre-labeled micro-centrifuge tubes and promptly frozen at −80±10° C. until bioanalysis was performed. Samples were identified by test item, group, animal number, and collection time point.
To evaluate pharmacokinetic properties of intravenous delivery, nine male C57 BL/6 mice were administered 2.00 mg Compound 1/kg animal weight through the tail vein. The concentration of Compound 1 in the plasma of the animals was evaluated at 0.083, 0.25, 0.5, 1, 2, 4, 8, and 24 hr by taking blood samples from the mice. Compound 2 was similarly administered for comparison.

The nature of data set [2]: In vivo pharmacokinetics, oral. The note with it: male C57 BL/6 mice. The procedure:
as §1, §2, §3
To evaluate pharmacokinetic properties of oral delivery, nine male C57 BL/6 mice were administered 10 mg Compound 1/kg animal weight by mouth. The concentration of Compound 1 in the plasma of the animals was evaluated at 0.25, 0.5, 1, 2, 4, 6, 8, and 24 hr by taking blood samples. Compound 2 was similarly administered for comparison.

Setting [3] is: mouse, plasma, oral, dose 10.00 mg/kg (Compound 1), 12.01 mg/kg (Compound 2).

Read-outs that look alike come from different tables or passages of the source.

What is called AUC(0-inf) is the area under the concentration-time curve extrapolated to infinity. One may read the AUC(0-t) as the area under the concentration-time curve up to a stated or last time point. The low end stands for less exposure, the high end for more exposure. As a reminder, the clearance is the rate of elimination divided by the concentration. By half-life is commonly meant the time in which the quantity being followed falls by half. A higher half-life goes with slow decline. In general, bioavailability refers to the share of a dose that reaches the circulation, judged against a reference dose that is usually intravenous. By Cmax is commonly meant the highest concentration seen after dosing. Usually Tmax stands for the time from dosing to the highest level. As for `CC(C)(CO)c1cc(-c2csc(-c3ccc(C(=O)N4CCC(O)CC4)cc3Cl)c2)ccn1` [Compound 2, reference compound], in data set [1], the AUCExtra is on record as 0.48%. In addition, the Vd in data set [1] (plasma, read-out: Vd) worked out at 4.55 L/kg. The Vd in data set [1] (plasma, read-out: Vss) amounted to 2.32 L/kg. In data set [1] (mouse, plasma), this compound came in with a total exposure AUC(0-inf) of 2.82 µg·h/mL, an AUC(0-t) of 2.81 µg·h/mL, a C0 of 2.67 µg/mL and a clearance of 0.86 L/h/kg. For the same compound, the half-life in data set [1] (mouse, plasma) was 3.67 h. Besides, in data set [1] (mouse, plasma, read-out: MRT0-last), the MRT last was found to be 2.56 h. The same compound showed a bioavailability in data set [2] (mouse, plasma, oral vs intravenous) of 66.6%. Further, in data set [2] (setting [3]), the AUC(0-inf) worked out at 9.3 µg·h/mL, the area under the curve AUC(0-t) worked out at 8.06 µg·h/mL, the highest level (Cmax) was 2.18 µg/mL and the Tmax was determined as 0.25 h. In data set [2] (setting [3]), this compound gave a half-life of 9.46 h. Also, the MRT last in data set [2] (mouse, plasma, oral, dose 10.00 mg/kg (Compound 1), 12.01 mg/kg (Compound 2), read-out: MRT0-last) came out at 6.61 h. This compound also came in with an AUCExtra in data set [2] (oral, dose 10.00 mg/kg (Compound 1), 12.01 mg/kg (Compound 2)) of 13.38%.

(Values after US20220356170A1, “SREBP INHIBITOR COMPRISING A THIOPHENE CENTRAL RING” (Capulus Therapeutics, LLC, priority 2019, published 2022).)
